Assay results reported in US9133117B2, “Triple reuptake inhibitors and methods of their use” (SUNOVION PHARMACEUTICALS INC., priority 2008, dated 2015).
Entries after “also recorded” stand apart in the source; their conditions may differ.

Experiments:
[1] = test system: formalin-induced flinching behavior; assay: Formalin pain model (flinching behavior); assay type: in vivo, rat; conditions: 60 min before formalin
Description: Effects of (3aR,6aS)-3a-(3,4-Dichlorophenyl)octahydrocyclopenta[c]pyrrole on acute and persistent inflammatory pain were evaluated in male rats. Pain was induced experimentally by application of a chemical irritant, formalin, which results in a biphasic behavioral response that includes both early (Phase 1, 0-9 minutes) and late (Phase 2, 10-60 minutes) phase flinching behavior. The early phase response is considered to be the result of C-fiber activation while the late phase appears to be dependent on the combination of an inflammatory response in the tissue and functional changes in the dorsal horn of the spinal cord.
Male rats (Sprague-Dawley, 272-315 g, Harlan) were housed 4 animals per cage in a temperature-controlled environment on a 12-hour light-dark cycle with food and water available ad libitum. Animals were allowed to acclimate to the facility for at least 5 days before testing. On the day of the study, a flexible, light-weight, ‘C’-shaped metal band was applied to one hind paw and the rat was dosed orally (PO, 3 mL/kg, via gavage) or intraperitoneally (IP, 1 mL/kg) with vehicle (50 mM acetate buffer (pH 4.5)), (3aR,6aS)-3a-(3,4-dichlorophenyl)octahydrocyclopenta[c]pyrrole or gabapentin. […] Formalin-induced flinching behavior was recorded for 60 minutes.

[2] = Brain and plasma levels following oral administration; assay type: in vivo; conditions: 10 mg/kg

Clc1ccc([C@@]23CCC[C@@H]2CNC3)cc1Cl [(3aR,6aS)-3a-(3,4-Dichlorophenyl)octahydrocyclopenta[c]pyrrole]
effect on formalin-induced flinching behavior ([1]; male rats, 3, 10 and 30 mg/kg PO, phase I 0-9 min, phase II 10-60 min): significant, dose-related decrease in flinching behavior during phases I and II; also recorded: significantly and dose-dependently attenuated formalin-induced flinching behavior in a non-selective manner

CN1C[C@H]2CCCC[C@@]2(c2ccc(Cl)c(Cl)c2)C1 [(3aR,7aS)-3a-(3,4-Dichlorophenyl)-2-methyloctahydro-1H-isoindole]
levels of tested compounds in brain (order of lines in FIG. 1) [2]: top line | ratio of brain and plasma levels (order of lines in FIG. 2) [2]: second line

CN1C[C@H]2CCC[C@@]2(c2ccc(Cl)c(Cl)c2)C1 [(3aR,6aS)-3a-(3,4-dichlorophenyl)-2-methyloctahydrocyclopenta[c]pyrrole]
levels of tested compounds in brain (order of lines in FIG. 1) [2]: fourth line | ratio of brain and plasma levels (order of lines in FIG. 2) [2]: fourth line

CN1C[C@@H]2CCC[C@]2(c2ccc(Cl)c(Cl)c2)C1 [(3aS,6aR)-3a-(3,4-dichlorophenyl)-2-methyloctahydrocyclopenta[c]pyrrole]
levels of tested compounds in brain (order of lines in FIG. 1) [2]: third line | ratio of brain and plasma levels (order of lines in FIG. 2) [2]: third line

NCC1(CC(=O)O)CCCCC1 [Gabapentin, reference compound]
effect on formalin-induced flinching behavior (positive control) ([1]; male rats, 100 mg/kg IP): significant and selective attenuation of phase II formalin-induced flinching behavior

CN1C[C@@H]2CCCC[C@]2(c2ccc(Cl)c(Cl)c2)C1 [(3aS,7aR)-3a-(3,4-Dichlorophenyl)-2-methyloctahydro-1H-isoindole]
levels of tested compounds in brain (order of lines in FIG. 1) [2]: second line | ratio of brain and plasma levels (order of lines in FIG. 2) [2]: top line
